Measured values as given in patent US12522614B2, “Topical phosphoinositide 3-kinase inhibitors” (VENTHERA, INC., priority 2019, dated 2026).
Blank lines part the entries; values can stand above or below the molecule they belong to.

Legend:
MTOR/FRAP1 = target: T1, MTOR/FRAP1 (Homo sapiens, UniProt P42345); test: Lipid kinase inhibitory activity, ADP-Glo; format: biochemical
T1 construct: purchased Reaction Biology Corporation (RBC)
Protocol: (§1) Lipid kinases: Lipid kinases from Reaction Biology Corporation (RBC) in ADP-Glo format were used.
(§2) Assay Description: The kinase reactions utilized ATP and produced ADP as a byproduct. The ADP production was quantified by ADP-Glo luminescence detection. This assay was a 3-step reaction. First, the kinase reaction with lipid substrate was carried out in the presence of ATP, and the reaction was quenched and depleted remaining ATP with ADP-Glo™ reagent, and then finally ADP was converted to ATP which was measured using a luciferase/luciferin reaction.
(§3) Assay Procedure: The assay was performed according to the steps as follows: • 1. Preparing substrate in freshly prepared reaction buffer; • 2. Delivering kinase into the substrate solution and gently mixing; • 3. Delivering compounds in […] into the kinase reaction mixture by Acoustic technology (Echo550; nanoliter range), incubating for 20 minutes at room temperature; • 4. Delivering ATP into the reaction mixture to initiate the reaction; • 5. Incubating for 30 minutes at 30° C.; • 6. Quenching the reaction with ADP-Glo reagent and incubating for 40 minutes; • 7. Adding Detection Mixture and incubating for 30 minutes; and • 8. Measuring luminescence.
(§4) Data Analysis: The luminescence was converted into μM ADP production based on ADP standard curves. The nonlinear regression to obtain the standard curve and IC50 values were performed using Graphpad Prism software.

PI3K (p110a(E542K)/p85a) = target: T2, PI3K (p110a(E542K)/p85a) (Homo sapiens, UniProt P42336, E542K); test: Lipid kinase inhibitory activity, ADP-Glo; format: biochemical; settings: α E542K
T2 construct: purchased Reaction Biology Corporation (RBC)
T2 sequence (P42336 whole entry E542K): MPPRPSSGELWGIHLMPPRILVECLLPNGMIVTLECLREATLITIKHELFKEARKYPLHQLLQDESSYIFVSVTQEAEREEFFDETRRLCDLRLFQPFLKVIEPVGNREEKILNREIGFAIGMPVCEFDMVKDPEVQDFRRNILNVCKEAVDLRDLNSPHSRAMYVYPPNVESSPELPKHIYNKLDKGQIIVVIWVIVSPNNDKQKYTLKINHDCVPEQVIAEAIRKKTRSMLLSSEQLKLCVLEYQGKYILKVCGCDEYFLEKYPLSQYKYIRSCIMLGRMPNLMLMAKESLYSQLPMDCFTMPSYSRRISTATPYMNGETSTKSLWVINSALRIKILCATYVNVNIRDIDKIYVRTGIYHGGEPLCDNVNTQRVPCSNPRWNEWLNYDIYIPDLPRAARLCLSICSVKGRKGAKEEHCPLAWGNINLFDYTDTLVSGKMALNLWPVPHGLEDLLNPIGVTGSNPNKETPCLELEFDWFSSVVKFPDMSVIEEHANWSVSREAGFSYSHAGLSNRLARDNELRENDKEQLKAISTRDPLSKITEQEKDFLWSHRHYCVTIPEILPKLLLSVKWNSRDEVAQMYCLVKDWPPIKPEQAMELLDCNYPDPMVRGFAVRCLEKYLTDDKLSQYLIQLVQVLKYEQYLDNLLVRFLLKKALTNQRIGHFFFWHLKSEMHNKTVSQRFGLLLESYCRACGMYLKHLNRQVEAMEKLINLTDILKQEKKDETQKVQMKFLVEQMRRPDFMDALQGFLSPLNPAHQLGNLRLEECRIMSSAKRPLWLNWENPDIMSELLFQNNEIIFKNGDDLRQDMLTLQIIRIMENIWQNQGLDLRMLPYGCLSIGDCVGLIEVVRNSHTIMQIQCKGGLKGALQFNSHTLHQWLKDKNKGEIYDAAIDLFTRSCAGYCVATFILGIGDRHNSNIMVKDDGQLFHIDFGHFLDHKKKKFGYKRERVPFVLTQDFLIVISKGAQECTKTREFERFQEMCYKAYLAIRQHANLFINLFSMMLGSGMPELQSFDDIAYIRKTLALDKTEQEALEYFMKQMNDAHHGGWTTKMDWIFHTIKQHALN
T2 sequence (P27986 whole entry partner): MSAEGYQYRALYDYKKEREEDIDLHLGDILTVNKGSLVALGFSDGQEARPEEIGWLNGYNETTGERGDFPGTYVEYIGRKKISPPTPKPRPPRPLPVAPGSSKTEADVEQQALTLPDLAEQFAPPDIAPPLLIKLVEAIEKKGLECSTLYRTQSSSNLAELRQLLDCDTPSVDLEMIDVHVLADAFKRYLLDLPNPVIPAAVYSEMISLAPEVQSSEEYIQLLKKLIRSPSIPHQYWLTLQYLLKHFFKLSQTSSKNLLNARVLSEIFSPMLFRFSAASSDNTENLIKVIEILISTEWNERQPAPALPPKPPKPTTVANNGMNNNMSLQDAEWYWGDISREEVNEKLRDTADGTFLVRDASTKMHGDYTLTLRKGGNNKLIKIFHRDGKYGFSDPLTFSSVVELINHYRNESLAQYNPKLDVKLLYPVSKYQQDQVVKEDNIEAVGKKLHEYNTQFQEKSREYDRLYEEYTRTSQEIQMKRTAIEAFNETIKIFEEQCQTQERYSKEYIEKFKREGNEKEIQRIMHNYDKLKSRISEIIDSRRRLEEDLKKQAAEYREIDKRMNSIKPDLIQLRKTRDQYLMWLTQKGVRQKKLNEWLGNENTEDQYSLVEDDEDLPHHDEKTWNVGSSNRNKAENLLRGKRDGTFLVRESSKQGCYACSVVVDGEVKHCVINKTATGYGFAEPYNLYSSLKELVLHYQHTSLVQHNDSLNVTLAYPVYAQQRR
Protocol: as §1, §2, §3, §4

PI3K (p110a(E545K)/p85a) = target: T3, PI3K (p110a(E545K)/p85a) (Homo sapiens, UniProt P42336, E545K); test: Lipid kinase inhibitory activity, ADP-Glo; format: biochemical; settings: α E545K
T3 construct: purchased Reaction Biology Corporation (RBC)
T3 sequence (P42336 whole entry E545K): as the sequence (P42336 whole entry E542K) above, with K542E, E545K counted along it
T3 sequence (P27986 whole entry partner): as the sequence (P27986 whole entry partner) above
Protocol: as §1, §2, §3, §4

[1] = target: T4, PI3K (p110a(H1047R)/p85a) (Homo sapiens, UniProt P42336, H1047R); test: Lipid kinase inhibitory activity, ADP-Glo; format: biochemical; settings: α H1047R
T4 construct: purchased Reaction Biology Corporation (RBC)
T4 sequence (P42336 whole entry H1047R): as the sequence (P42336 whole entry E542K) above, with K542E, H1047R counted along it
T4 sequence (P27986 whole entry partner): as the sequence (P27986 whole entry partner) above
Protocol: as §1, §2, §3, §4

PI3Ka (p110a/p85a) = target: T5, PI3Ka (p110a/p85a) (Homo sapiens, UniProt P42336); test: Lipid kinase inhibitory activity, ADP-Glo; format: biochemical; settings: α
T5 construct: purchased Reaction Biology Corporation (RBC)
T5 sequence (P42336 whole entry): as the sequence (P42336 whole entry E542K) above, with K542E counted along it
T5 sequence (P27986 whole entry partner): as the sequence (P27986 whole entry partner) above
Protocol: as §1, §2, §3, §4

PI3Kb (p110b/p85a) = target: T6, PI3Kb (p110b/p85a) (Homo sapiens, UniProt P42338); test: Lipid kinase inhibitory activity, ADP-Glo; format: biochemical; settings: β
T6 construct: purchased Reaction Biology Corporation (RBC)
Protocol: as §1, §2, §3, §4

PI3Kd (p110d/p85a) = target: T7, PI3Kd (p110d/p85a) (Homo sapiens, UniProt O00329); test: Lipid kinase inhibitory activity, ADP-Glo; format: biochemical; settings: δ
T7 construct: purchased Reaction Biology Corporation (RBC)
T7 sequence (O00329 whole entry): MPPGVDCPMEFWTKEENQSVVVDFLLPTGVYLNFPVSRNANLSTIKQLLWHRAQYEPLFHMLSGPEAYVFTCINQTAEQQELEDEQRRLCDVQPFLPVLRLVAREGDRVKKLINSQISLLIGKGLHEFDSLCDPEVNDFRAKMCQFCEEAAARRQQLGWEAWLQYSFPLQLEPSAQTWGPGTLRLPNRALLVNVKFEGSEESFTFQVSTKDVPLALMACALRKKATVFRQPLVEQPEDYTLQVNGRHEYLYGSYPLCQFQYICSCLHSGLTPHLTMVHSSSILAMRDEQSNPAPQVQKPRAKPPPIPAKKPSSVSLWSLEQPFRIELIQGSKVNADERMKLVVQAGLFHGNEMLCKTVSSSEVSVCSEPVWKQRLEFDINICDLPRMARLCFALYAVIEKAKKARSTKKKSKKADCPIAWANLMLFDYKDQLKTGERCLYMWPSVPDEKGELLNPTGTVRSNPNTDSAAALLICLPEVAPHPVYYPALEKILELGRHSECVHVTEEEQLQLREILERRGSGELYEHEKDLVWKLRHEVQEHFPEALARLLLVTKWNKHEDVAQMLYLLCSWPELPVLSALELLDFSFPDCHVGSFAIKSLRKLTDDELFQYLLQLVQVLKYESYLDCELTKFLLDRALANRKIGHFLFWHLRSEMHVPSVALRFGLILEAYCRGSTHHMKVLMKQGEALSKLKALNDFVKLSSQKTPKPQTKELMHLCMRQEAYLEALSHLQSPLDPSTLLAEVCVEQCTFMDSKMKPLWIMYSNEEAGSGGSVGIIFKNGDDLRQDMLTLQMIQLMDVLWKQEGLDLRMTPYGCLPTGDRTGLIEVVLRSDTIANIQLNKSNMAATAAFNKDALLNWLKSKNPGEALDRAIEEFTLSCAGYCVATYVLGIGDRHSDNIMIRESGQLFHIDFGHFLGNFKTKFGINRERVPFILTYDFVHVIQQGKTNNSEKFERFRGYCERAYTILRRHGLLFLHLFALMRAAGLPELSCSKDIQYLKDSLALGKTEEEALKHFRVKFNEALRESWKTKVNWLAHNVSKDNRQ
T7 sequence (P27986 whole entry partner): as the sequence (P27986 whole entry partner) above
Protocol: as §1, §2, §3, §4

PI3Kg (p110g) = target: T8, PI3Kg (p110g) (Homo sapiens, UniProt P48736); test: Lipid kinase inhibitory activity, ADP-Glo; format: biochemical; settings: γ
T8 construct: purchased Reaction Biology Corporation (RBC)
T8 sequence (P48736 whole entry): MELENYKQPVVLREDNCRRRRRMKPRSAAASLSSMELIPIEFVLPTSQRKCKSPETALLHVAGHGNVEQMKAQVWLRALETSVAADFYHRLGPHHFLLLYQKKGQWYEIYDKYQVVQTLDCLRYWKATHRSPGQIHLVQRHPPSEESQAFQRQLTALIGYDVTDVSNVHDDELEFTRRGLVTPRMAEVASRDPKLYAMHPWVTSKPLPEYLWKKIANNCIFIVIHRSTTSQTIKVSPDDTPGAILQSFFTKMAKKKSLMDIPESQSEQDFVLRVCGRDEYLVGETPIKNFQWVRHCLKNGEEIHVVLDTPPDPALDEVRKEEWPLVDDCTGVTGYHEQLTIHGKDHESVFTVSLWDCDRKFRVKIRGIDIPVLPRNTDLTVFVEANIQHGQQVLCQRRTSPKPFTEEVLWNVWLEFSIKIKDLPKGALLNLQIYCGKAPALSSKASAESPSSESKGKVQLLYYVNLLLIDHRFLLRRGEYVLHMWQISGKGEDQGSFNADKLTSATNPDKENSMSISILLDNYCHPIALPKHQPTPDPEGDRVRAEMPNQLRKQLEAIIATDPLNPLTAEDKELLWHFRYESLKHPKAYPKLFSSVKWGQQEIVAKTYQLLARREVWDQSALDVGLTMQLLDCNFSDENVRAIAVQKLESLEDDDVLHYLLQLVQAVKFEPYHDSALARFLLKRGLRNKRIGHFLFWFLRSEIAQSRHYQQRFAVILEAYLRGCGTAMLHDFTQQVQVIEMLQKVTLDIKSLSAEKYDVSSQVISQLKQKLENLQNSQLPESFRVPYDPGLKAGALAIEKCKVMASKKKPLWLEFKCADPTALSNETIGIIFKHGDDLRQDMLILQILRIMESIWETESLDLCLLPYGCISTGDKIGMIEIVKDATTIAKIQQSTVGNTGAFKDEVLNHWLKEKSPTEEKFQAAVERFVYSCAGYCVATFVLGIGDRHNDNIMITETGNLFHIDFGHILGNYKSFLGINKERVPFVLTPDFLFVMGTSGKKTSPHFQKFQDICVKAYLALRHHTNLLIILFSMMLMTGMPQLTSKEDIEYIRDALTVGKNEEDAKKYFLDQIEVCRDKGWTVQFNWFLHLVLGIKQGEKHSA
Protocol: as §1, §2, §3, §4

[2] = In vitro human skin permeation study of topical gel formulations (Franz diffusion cells); format: in vitro ADME; settings: saturated gel formulations, skin flux experiments
Source text: The gel formulation of Example 8 was used as the donor phase to determine the permeation of Compound 1.002 through human skin and its effectiveness as a topical application. Three skin donors and three diffusion cells (for each donor) per formulation were used in the in vitro skin permeation experiments. Split thickness dermatomed (approximately at […] thickness) human cadaver skin, supplied by New York Firefighters Skin Bank, NY, was used to determine the permeation rate of the tested compound (i.e., the drug) in vitro. All in vitro skin permeation studies were conducted using the Vertical Diffusion Cells assembly with consoles (Model FDC-6), and heating controllers (Logan Instruments Inc. Somerset, NJ). Each assembly consisted of six vertical, jacketed (37° C.±0.5° C.) 12-mL Franz diffusion cells with magnetic stirrer and 1.767 cm^2 diffusion area.
(§5) Skin flux studies were run for a period of 48 hours. At predetermined intervals (2, 4, 8, 24 and 48 hours) after starting the experiment, the entire contents of the receiver compartment were collected for determining concentrations of the drug by HPLC. The receiver compartment was refilled with fresh receiver medium. The receiver medium was pH 7.4 phosphate buffer with 0.5 mg/ml of Oleath 20 with the saturation concentration of the drug in the receptor medium being 0.152 mg/ml. This solubility of the drug in the receiver medium was enough to ensure sink conditions throughout each collection interval.
Samples of the receptor phase were obtained at 2, 4, 8, 12, 24 and 48 h and concentrations of Compound 1.002 and 3-(4-morpholinothieno(3,2-d)pyrimidin-2-yl)phenol (metabolite of Compound 1.002, abbreviated as MTPP) were determined using a validated HPLC method. The metabolism of Compound 1.002 to MTPP takes place in the human skin by esterase enzymes.
HPLC method: Column—Gemini C-18 4.6×150 mm, 5 μm particle size; Mobile Phase—water:acetonitrile 25:75 containing 0.1% TFA; Flow Rate—1 mL/min; Detection—274 nm; Column Temperature—40° C.; and Run Time—10 min. The retention times for MTPP and Compound 1.002 were 3.9 and 7.2 minutes, respectively.
The skin flux of drugs and cumulative amount of drugs permeated (sum of MTPP and Compound 1.002) for a period of 48 hours were calculated and are shown in Table 3. FIG. 3 represents a plot of Cumulative amount permeated versus time.

[3] = Saturation concentration in formulation or receiver medium; format: physicochemical; settings: gel formulation with excipients of Example 8 (Table 2)
Protocol: The liquid excipients, i.e. DMSO, oleic acid, Transcutol® P, and dipropylene glycol were mixed in a 20-mL vial, by vortex agitation. The active ingredient, a compound of formula (I), for example Compound 1.002 was then added, and the vial content was sonicated for 10 minutes to dissolve the compound. […] Hydroxylpropyl cellulose (HPC) was added, and the vial was agitated by vortex for another ten minutes to obtain the gel formulation. The viscosity of the clear gel was measured to be in a range of about 7,000 to 10,000 centipoise (cp).
as §5

[4] = Accelerated stability study of topical gel formulations at 80° C.; format: physicochemical; settings: for Relative Purity: gel formulation (Table 2 excipients); for Relative Purity / percent hydrolysis to the parent compound MTPP: 80° C.; for Stability in gel formulation: 80° C. for 10 days; for percent hydrolysis to the parent compound MTPP: gel formulation
Protocol: Topical gel formulations were prepared using excipients as shown in Table 2 according to Example 8, in which Compounds 1.002, 1.012, and 1.006 were used as the active ingredient, respectively. These gel formulations were subjected to stability study at 80° C. for 10 days. Stability under the condition of at 80° C. for 10 days is expected to be approximately equivalent to the stability for three (3) years at room temperature. A relative purity of the tested compound after being exposed for 5 days and 10 days at 80° C. was determined by HPLC, as compared to its initial purity (at day 0).
The values shown in the table are percent hydrolysis of the respective compounds to the parent compound MTPP.
Topical gel formulations of Compound 1.002 were prepared using excipients as shown in Table 2 according to Example 8, in which the content of oleic acid varied at 1%, 2%, 5%, and 10%, respectively. These gel formulations were subjected to stability study at 80° C. for 10 days, which is expected to be approximately equivalent to the stability for three (3) years at room temperature. A purity of the tested compound on day 0, 5, 7, and 10 at 80° C. was determined by HPLC. The detected impurity of the tested compound appears to be the hydrolysis product, as MTPP. Table 17 represents stability data of Compound 1.002 in topical formulations having oleic acid at various contents.
Gel formulations of Example 17 were subjected to stability study at 80° C. for 10 days. Stability under the condition of at 80° C. for 10 days is expected to be approximately equivalent to the stability for three (3) years at room temperature. A relative purity of Compound 1.002 after being exposed for 5 days and 10 days at 80° C. was determined by HPLC, as compared to its initial purity (at day 0).

[5] = In vitro human skin permeation study of topical gel formulations (Franz diffusion cells); format: in vitro ADME; settings: human skin; for Cumulative permeation, Compound 1.012 / Hydrolysis of Cmpd. 1.012 to MTPP: Study-6, gel saturated at 58 mg/mL; for Cumulative permeation (intact compound) / Hydrolysis of Cmpd. 1.001 to MTPP: Study-4, saturated gel
[6] = Accelerated stability study of topical gel formulations at 80° C.; format: physicochemical; settings: gel formulation, 3 days

IC50 (MTOR/FRAP1): 3320 nM
IC50 (PI3K (p110a(E542K)/p85a)): 3690 nM
IC50 (PI3K (p110a(E545K)/p85a)): 4310 nM
IC50 [1]: 3110 nM
IC50 (PI3Ka (p110a/p85a)): 1930 nM
IC50 (PI3Kb (p110b/p85a)): 5590 nM
IC50 (PI3Kd (p110d/p85a)): 714 nM
IC50 (PI3Kg (p110g)): 131 nM
SMILES: CC(=O)OCc1cccc(-c2nc(N3CCOCC3)c3sccc3n2)c1 [Compound 1.015, 3-(4-Morpholinothieno[3,2-d]pyrimidin-2-yl)benzyl acetate]

IC50 (MTOR/FRAP1): 113 nM
IC50 (PI3K (p110a(E542K)/p85a)): 9 nM
IC50 (PI3K (p110a(E545K)/p85a)): 9.8 nM
IC50 [1]: 7.8 nM
IC50 (PI3Ka (p110a/p85a)): 7 nM
IC50 (PI3Kb (p110b/p85a)): 56 nM
IC50 (PI3Kd (p110d/p85a)): 17 nM
IC50 (PI3Kg (p110g)): 61 nM
SMILES: OCc1cccc(-c2nc(N3CCOCC3)c3sccc3n2)c1 [MTPPM, (3-(4-morpholinothieno[3,2-d]pyrimidin-2-yl)phenyl)methanol, reference compound]

Metabolism to MTPP during permeation through human skin [2]: completely metabolize into MTPP
Saturation concentration in the gel formulation [3]: 58 mg/mL
Relative Purity ([4]; Day 0): 100%
Relative Purity ([4]; Day 5): 99%
Relative Purity ([4]; Day 10): 96%
Cumulative permeation, Compound 1.012 ([5]; 2 h): 0.0 μg/cm^2
Hydrolysis of Cmpd. 1.012 to MTPP ([5]; 2 h): 100%
Cumulative permeation, Compound 1.012 ([5]; 4 h): 0.0 μg/cm^2
Hydrolysis of Cmpd. 1.012 to MTPP ([5]; 4 h): 100%
Cumulative permeation, Compound 1.012 ([5]; 8 h): 0.0 μg/cm^2
Hydrolysis of Cmpd. 1.012 to MTPP ([5]; 8 h): 100%
Cumulative permeation, Compound 1.012 ([5]; 24 h): 0.0 μg/cm^2
Hydrolysis of Cmpd. 1.012 to MTPP ([5]; 24 h): 100%
Cumulative permeation, Compound 1.012 ([5]; 48 h): 0.0 μg/cm^2
Hydrolysis of Cmpd. 1.012 to MTPP ([5]; 48 h): 100%
SMILES: CCOC(=O)Oc1cccc(-c2nc(N3CCOCC3)c3sccc3n2)c1 [Compound 1.012, Ethyl (3-(4-morpholinothieno[3,2-d]pyrimidin-2-yl)phenyl) Carbonate]

Stability in gel formulation [4]: very stable
percent hydrolysis to the parent compound MTPP ([4]; 0 days): 0.00%
percent hydrolysis to the parent compound MTPP ([4]; 5 days): 0.28%
percent hydrolysis to the parent compound MTPP ([4]; 7 days): 0.39%
percent hydrolysis to the parent compound MTPP ([4]; 10 days): 0.56%
percent hydrolysis to the parent compound MTPP [6]: 0.20%
SMILES: CCCCCCCCCC(=O)Oc1cccc(-c2nc(N3CCOCC3)c3sccc3n2)c1 [Compound 1.008, 3-(4-Morpholinothieno[3,2-d]pyrimidin-2-yl)phenyl Decanoate]

Metabolism to MTPP during permeation through human skin [2]: appeared not to metabolize to MTPP
Cumulative permeation (intact compound) ([5]; 2 h): 0.0 μg/cm^2
Hydrolysis of Cmpd. 1.001 to MTPP ([5]; 2 h): 0.0
Cumulative permeation (intact compound) ([5]; 4 h): 10.2 μg/cm^2
Hydrolysis of Cmpd. 1.001 to MTPP ([5]; 4 h): 0.0
Cumulative permeation (intact compound) ([5]; 8 h): 51.8 μg/cm^2
Hydrolysis of Cmpd. 1.001 to MTPP ([5]; 8 h): 0.0
Cumulative permeation (intact compound) ([5]; 24 h): 202.1 μg/cm^2
Hydrolysis of Cmpd. 1.001 to MTPP ([5]; 24 h): 0.0
Cumulative permeation (intact compound) ([5]; 48 h): 260.4 μg/cm^2
Hydrolysis of Cmpd. 1.001 to MTPP ([5]; 48 h): 0.0
SMILES: COc1cccc(-c2nc(N3CCOCC3)c3sccc3n2)c1 [Compound 1.001, 4-(2-(3-Methoxyphenyl)thieno[3,2-d]pyrimidin-4-yl)morpholine]

Stability in gel formulation [4]: very stable
percent hydrolysis to the parent compound MTPP ([4]; 0 days): 0.09%
percent hydrolysis to the parent compound MTPP ([4]; 5 days): 0.24%
percent hydrolysis to the parent compound MTPP ([4]; 7 days): 0.33%
percent hydrolysis to the parent compound MTPP ([4]; 10 days): 0.43%
percent hydrolysis to the parent compound MTPP [6]: 0.18%
SMILES: CCCCCCCC/C=C\CCCCCCCC(=O)Oc1cccc(-c2nc(N3CCOCC3)c3sccc3n2)c1 [Compound 1.011, 3-(4-Morpholinothieno[3,2-d]pyrimidin-2-yl)phenyl Oleate]

Stability in gel formulation [4]: very stable
percent hydrolysis to the parent compound MTPP ([4]; 0 days): 0.00%
percent hydrolysis to the parent compound MTPP ([4]; 5 days): 2.09%
percent hydrolysis to the parent compound MTPP ([4]; 7 days): 2.43%
percent hydrolysis to the parent compound MTPP ([4]; 10 days): 2.94%
percent hydrolysis to the parent compound MTPP [6]: 1.32%
SMILES: O=C(/C=C/c1ccccc1)Oc1cccc(-c2nc(N3CCOCC3)c3sccc3n2)c1 [Compound 1.014, 3-(4-Morpholinothieno[3,2-d]pyrimidin-2-yl)phenyl Cinnamate]
